Measured values reported in article PMC9004391, “Cytochrome P450 Monooxygenase/Cytochrome P450 Reductase Bi-Enzymatic System Isolated From Ilex asprella for Regio-Specific Oxidation of Pentacyclic Triterpenoids” (Frontiers in Plant Science, 2022).

Columns and labels:
[1] = molecular target: T1, IaAO4 (Ilex asprella, UniProt A0A976SHZ5); experiment: yeast metabolite analysis by GC-MS; assay type: cell-based; conditions: S. cerevisiae WAT11tfAX co-expressing IaAO1
T1 construct: 513 aa ORF (1,539 bp); pESC-URA in S. cerevisiae WAT11tfAX co-expressing IaAO1
T1 sequence (A0A976SHZ5 1-512): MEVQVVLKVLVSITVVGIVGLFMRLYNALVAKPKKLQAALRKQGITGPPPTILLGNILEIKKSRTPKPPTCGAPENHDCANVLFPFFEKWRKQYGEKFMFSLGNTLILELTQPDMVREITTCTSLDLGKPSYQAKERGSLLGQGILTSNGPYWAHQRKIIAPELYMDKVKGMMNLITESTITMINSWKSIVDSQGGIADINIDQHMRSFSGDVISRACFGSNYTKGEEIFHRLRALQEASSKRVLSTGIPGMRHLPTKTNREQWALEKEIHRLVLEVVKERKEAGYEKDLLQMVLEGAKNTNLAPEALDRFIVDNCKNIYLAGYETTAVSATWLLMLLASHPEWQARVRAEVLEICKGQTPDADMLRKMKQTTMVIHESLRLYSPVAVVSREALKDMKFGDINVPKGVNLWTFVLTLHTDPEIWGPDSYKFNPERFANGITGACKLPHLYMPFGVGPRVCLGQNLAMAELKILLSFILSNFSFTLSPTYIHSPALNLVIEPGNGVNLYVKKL

[2] = test system: T2, IaCPR; experiment: reductase activity by absorbance, microplate reader; assay type: biochemical, Ilex asprella; conditions: electron acceptor for this constant, pH and temperature not printed in main text
T2 construct: full ORF 2,133 bp, 710 aa; pET32a (vector fusion tag), E. coli Transetta (DE3), Ni-NTA

[3] = molecular target: T3, IaAO5 (Ilex asprella, UniProt A0A976SHZ3); experiment: yeast metabolite analysis by GC-MS; assay type: cell-based; conditions: S. cerevisiae WAT11tfA co-expressing IaAS2; C-24 oxidation to α-boswellic acid; not seen in strain WAT11tfAX
T3 construct: 515 aa ORF (1,545 bp); pESC-TRP in S. cerevisiae WAT11tfA co-expressing IaAS2
T3 sequence (A0A976SHZ3 1-514): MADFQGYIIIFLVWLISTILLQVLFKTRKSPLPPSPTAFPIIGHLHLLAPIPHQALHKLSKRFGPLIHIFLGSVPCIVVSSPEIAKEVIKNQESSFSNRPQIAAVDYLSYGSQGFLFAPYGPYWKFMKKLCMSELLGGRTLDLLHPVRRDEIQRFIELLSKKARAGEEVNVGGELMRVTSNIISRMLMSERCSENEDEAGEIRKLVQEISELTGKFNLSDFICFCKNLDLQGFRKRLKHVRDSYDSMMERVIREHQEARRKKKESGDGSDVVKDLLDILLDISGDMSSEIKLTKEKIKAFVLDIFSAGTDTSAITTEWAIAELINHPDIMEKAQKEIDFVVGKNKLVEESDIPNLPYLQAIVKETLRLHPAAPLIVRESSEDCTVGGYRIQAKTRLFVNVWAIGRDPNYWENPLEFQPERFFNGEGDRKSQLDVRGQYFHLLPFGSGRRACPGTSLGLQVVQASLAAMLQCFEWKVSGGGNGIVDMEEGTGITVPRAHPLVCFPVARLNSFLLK

SMILES: C[C@H]1[C@H](C)CC[C@]2(C(=O)O)CC[C@]3(C)C(=CC[C@@H]4[C@@]5(C)CC[C@H](O)C(C)(C)[C@@H]5CC[C@]43C)[C@H]12 [ursolic acid]
- yeast metabolite analysis by GC-MS ([1]; C-23 oxidation, products 23-hydroxyl- and 23-carboxyl-ursolic acid tentative): catalyzing the oxidation of both OA and UA at the C-23 position

SMILES: CC1(C)CC[C@]2(C(=O)O)CC[C@]3(C)C(=CC[C@@H]4[C@@]5(C)CC[C@H](O)C(C)(C)[C@@H]5CC[C@]43C)[C@@H]2C1 [oleanolic acid]
- yeast metabolite analysis by GC-MS ([1]; C-23 oxidation to hederagenin and gypsogenic acid): catalyzing the oxidation of both OA and UA at the C-23 position

SMILES: NC(=O)C1=CN([C@@H]2O[C@H](COP(=O)(O)OP(=O)(O)OC[C@H]3O[C@@H](n4cnc5c(N)ncnc54)[C@H](OP(=O)(O)O)[C@@H]3O)[C@@H](O)[C@H]2O)C=CC1 [NADPH]
- Km [2]: 7.69 µM

SMILES: CC1(C)CC[C@]2(C)CC[C@]3(C)C(=CC[C@@H]4[C@@]5(C)CC[C@H](O)C(C)(C)[C@@H]5CC[C@]43C)[C@@H]2C1 [β-amyrin]
- yeast metabolite analysis by GC-MS [3]: catalyzes oxidation at the C-24 position of β-amyrin to yield α-Boswellic acid
